Measured values reported in patent publication US20240083921A1, “BORATE DERIVATIVE AND USES THEREOF” (Reistone Biopharma Company Limited, priority 2020, published 2024).
Read-outs that look alike come from different tables or passages of the source.

What was measured:
PDE4B1 enzyme = PDE4B1 enzyme (Homo sapiens (Human), UniProt Q07343); experiment: In vitro PDE4B enzyme activity detection test (IMAP FP, FAM-cAMP substrate); format: biochemical; details: PDE4B1 0.04 nM, FAM-cAMP 0.1 μM, 25° C. 30 min
Experimental: Test Example 1 In vitro PDE4B Enzyme Activity Detection Test
1. Experimental Materials
First, a stock solution of the compound at a concentration of 10 mM was prepared in a test tube with 90% DMSO (10% water), and it was used to prepare a series of dilutions with a dilution factor of 1:5 and final concentrations starting from 100 μM to as low as 0.05 nM.
0.2 μl of the compound solution was transferred into a 384-well reaction plate, and 0.2 μl of 100% DMSO was transferred into both the negative and positive controls. Then, 10 μl of 2×PDE4B1 enzyme solution (making a final concentration of 0.04 nM) was added to each well, and 10 μl of 1×reaction buffer instead of the enzyme solution was added to the zero enzyme activity control wells. The plate was centrifuged at 1,000 rpm for 1 min and incubated at room temperature for 15 min. Next, 10 μl of 2×FAM-cAMP substrate solution (making a substrate final concentration of 0.1 μM) was added to each well of the 384-well reaction plate. The plate was centrifuged at 1,000 rpm for 1 min and the reaction was carried out at 25° C. for 30 min. After completion of the reaction, 60 μl of reaction stop solution was added to each well of the 384-well reaction plate to terminate the reaction, and the plate was incubated with shaking at 600 rpm on a shaker at room temperature in the dark for 60 min.
After the incubation, the RLU data were read and the inhibition rate was calculated. The IC50 value was calculated from the concentration-inhibition fitted curve, wherein the maximum value refers to the reading of the DMSO control and the minimum value refers to the reading of the zero enzyme activity control.
The in vitro inhibition of PDE4B1 enzyme activity by the Examples of the present disclosure was determined by the above test, and the measured IC50 value was shown in Table 1.

[1] = system: TNF-α release from peripheral blood mononuclear cells (PBMCs); experiment: Inhibition of pro-inflammatory cytokine (TNF-α) release from LPS-stimulated PBMCs, ELISA; format: cell-based; details: LPS 0.1 ng/ml, 24 hours
Text: Test Example 2 Inhibitory Effect of Compounds on the Release of Pro-Inflammatory Cytokines from Peripheral Blood Mononuclear Cells (PBMCs)
Frozen PBMCs were thawed and detected by Trypan blue staining for cell viability and number. The thawed PBMCs were washed with RPMI1640 complete medium (RPMI1640+10% FBS+1% PS) and centrifuged, and the supernatant was discarded. The PBMCs were resuspended with RPMI1640 complete medium and the cell density was adjusted to 2×10^6 cells/mL. 2×10^5 PBMC cells were plated in a 96-well cell culture plate, and the compounds to be tested were added at different concentrations, in a 1:5 serial dilution of 9 concentrations starting from a maximum compound concentration of 100 μM, each in duplicate. LPS was added at a final concentration of 0.1 ng/ml, making a total volume of 200 μL. For the negative and positive controls, only LPS and DMSO were added to the negative control well, while 1 μg/mL of dexamethasone was added to the positive control well in addition to cells and LPS as. The cells were incubated in an incubator at 37° C. for 24 hours. After completion of the incubation, 100 μL of cell culture supernatant was collected and detected by ELISA for the TNF-α level. 100 μL of CellTiter-Glo was added to the remaining cells in each well to detect the cell viability level. The IC50 value of inhibition of TNF-α release by the compounds was calculated.
The in vitro inhibition of pro-inflammatory cytokine release of PBMCs by the Examples of the present disclosure was determined by the above test, and the determined IC50 value was shown in Table 2.

[2] = system: IL-23 secretion of DC cells differentiated from human mononuclear cells; experiment: In vitro inhibition of IL-23 secretion of DC cells differentiated from human mononuclear cells, Zymosan stimulation, ELISA; format: cell-based; details: Table 3: inhibition of IL-23 secretion of DC cells, Zymosan 200 μg/ml, 24 hours
Experimental: Test Example 3 Experiment of in vitro Inhibition of IL-23 Secretion of DC Cells Differentiated from Human Mononuclear Cells by the Compounds
Day 0: Mononuclear cells were isolated from fresh human peripheral blood and purified and then resuspended in RPMI-1640 complete medium (RPMI-1640+10% FBS+1% P.S.+55 μM 2-Mercaptoethanol). When differentiating into DC cells, IL-4 at a concentration of 50 ng/ml and GM-CSF at 100 ng/ml were added to the medium. The cells were cultured at a density of 1×10^6 cells/mL in a culture dish with a diameter of 100 mm for differentiation in an incubator at 37° C. with a carbon dioxide concentration of 5%. Day 3: Half the volume of RPMI complete medium was replaced with fresh RPMI complete medium while maintaining the concentration of IL-4 at 50 ng/ml and GM-CSF at 100 ng/ml. Day 6: Non-adherent cells (DC cells) in the culture dish were collected and washed with PBS. The washed DC cells were resuspended with RPMI complete medium at a density of 1×10^6 cells/mL. Then. 1×10^5 DC cells were added to each well of the 96-well cell culture plate and pre-incubated with different dilutions of the compounds to be tested (or DMSO blank negative control at equivalent concentration) for 1 hour, followed by addition of 200 μg/ml of the TLR2 agonist Zymosan to stimulate the DC cells for 24 hours. Day 7: After 24 hours of Zymosan stimulation of DC cells. the supernatant in each well of the 96-well plate was collected and detected by ELISA for the concentration of IL-23.
The inhibition of IL-23 secretion of DC cells differentiated from human mononuclear cells by the compounds of the present disclosure was determined by the above test, and the determined IC50 value was shown in Table 3.

[3] = system: imiquimod-induced psoriasis mouse model; experiment: Suppression of imiquimod-induced psoriasis in mice (topical ointment); format: in vivo, Balb/c female mice; details: for Ratio of spleen weight to body weight Mean / Total clinical score Mean / Erythema score Mean / Scale score Mean / Thickness score Mean: IMQ mice; for Ratio of spleen weight to body weight Mean: Day 7, percentage of spleen to body weight; for Total clinical score Mean: endpoint; for Erythema score Mean / Scale score Mean / Thickness score Mean: scale 0-4; for clinical score at the endpoint (statement): each dose of Compound 12-1; for clinical score at the endpoint (statement) / effect on the ratio of spleen weight to body weight (statement): versus model; for effect on the ratio of spleen weight to body weight (statement): three dose groups of Compound 12-1
Text: Test Example 4 Experiment of Suppression of Imiquimod-Induced Psoriasis
An appropriate amount of Compound 12-1 was formulated into an ointment with the following components: 0.1% of Compound 12-1, 9% of hexanediol, 78.8% of white petrolatum, 5% of paraffin, 7% of glyceryl mono- and distearate, and 0.1% of […], which were mechanically stirred until an ointment was formed.
1) Model Establishment and Drug Administration
7-Week-old Balb/c female mice were used and the hair on their back in an area of 2 cm×3 cm was shaved the day before the experiment. On Days 1-7 of the experiment, the test compounds were applied on the skin for 6 hours, and then imiquimod (IMQ) ointment (Aldara (5%)) was continuously applied to the back skin of mice for 7 days, so as to establish a mouse model of psoriasis, while the control group was given the same dose of petrolatum ointment. On Days 3, 5 and 7, the severity of skin inflammation was assessed, including measurement of skin thickness, crusting and erythema, scored on a 5-point scale (0-4) respectively. The total score was used to assess the severity of skin inflammation. On Day 7 of the experiment, the spleen was collected and weighed, and the percentage of spleen to body weight was calculated to assess the immunosuppressive effect of the drug.
Normal control group, model control group, low, medium and high dose groups of Compound 12-1 (0.01%, 0.03% and 0.1%), 0.03% Compound 1-1 group, and 0.03% reference Compound A group were set up in this experiment.
The total score of the degree of skin inflammation was the clinical score, the indicators of which were relatively subjective, and higher score indicated more serious disease. The degree of increase in skin thickness was an objective assessment indicator, and more increase in thickness indicated more serious disease. The ratio of spleen weight to body weight was an objective assessment indicator, and smaller ratio of spleen weight to body weight indicated stronger immunosuppressive effect of the drug.

[4] = Compound A 0.03%, Compound 1-1 0.03%

Chain of PDE4B1 enzyme (Q07343 whole entry): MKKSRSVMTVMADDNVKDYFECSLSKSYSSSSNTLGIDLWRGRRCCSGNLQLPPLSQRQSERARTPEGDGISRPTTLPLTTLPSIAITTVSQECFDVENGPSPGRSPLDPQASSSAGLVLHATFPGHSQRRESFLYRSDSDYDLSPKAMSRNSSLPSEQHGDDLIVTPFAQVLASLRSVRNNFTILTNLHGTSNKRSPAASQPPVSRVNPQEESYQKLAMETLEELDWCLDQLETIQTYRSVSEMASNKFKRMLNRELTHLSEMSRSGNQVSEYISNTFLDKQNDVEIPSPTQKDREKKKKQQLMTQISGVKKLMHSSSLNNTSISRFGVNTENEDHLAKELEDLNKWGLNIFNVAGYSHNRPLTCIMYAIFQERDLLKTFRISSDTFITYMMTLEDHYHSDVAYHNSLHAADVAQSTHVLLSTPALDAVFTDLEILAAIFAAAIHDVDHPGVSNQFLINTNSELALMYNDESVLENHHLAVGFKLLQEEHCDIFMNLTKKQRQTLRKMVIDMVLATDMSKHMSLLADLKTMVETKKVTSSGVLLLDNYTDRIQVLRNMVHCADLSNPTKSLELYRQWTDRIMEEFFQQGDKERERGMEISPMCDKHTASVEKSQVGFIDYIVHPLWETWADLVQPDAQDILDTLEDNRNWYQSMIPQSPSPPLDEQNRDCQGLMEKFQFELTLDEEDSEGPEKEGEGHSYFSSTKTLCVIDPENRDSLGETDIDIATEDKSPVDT

## COc1ccc(-c2cncc([C@@H]3COB(O)C3)c2)c2c1OC1(CCCC1)C2 [Compound 1-1]
PDE4B1 enzyme
  IC50: 0.11 nM
[1]; read-out: PBMC IC50
  IC50: 0.32 nM
[2]; read-out: PBMC IC50
  IC50: 0.12 nM
[3]; 0.03% applied on skin
  Ratio of spleen weight to body weight Mean: 0.63
  Total clinical score Mean: 8.5
  Erythema score Mean: 3.63
  Scale score Mean: 2.75
  Thickness score Mean: 2.13
[3]; Compound 1-1 0.03%, each dose group of Compound 12-1
  single item scores (statement): mainly improve scab and reduce skin thickness
[3]; [4]
  clinical score at the endpoint (statement): significantly reduce the clinical score
  effect on the ratio of spleen weight to body weight (statement): significantly reduce the ratio of spleen weight to body weight
[3]; same dose (0.03%)
  effect on the ratio of spleen weight to body weight compared with Compound A: significantly different from that of Compound A

## COc1ccc(-c2cncc([C@H]3COB(O)C3)c2)c2c1OC1(CCCC1)C2 [Compound 1-2]
PDE4B1 enzyme
  IC50: 0.4 nM
[1]; read-out: PBMC IC50
  IC50: 3.26 nM

## COc1ccc(-c2cncc(C3COB(O)C3)c2)c2c1OC(C)C2 (stereo not drawn) [Compound 2]
PDE4B1 enzyme
  IC50: 4.5 nM

## COc1ccc(-c2cccc(C3COB(O)C3)c2)c2c1OC1(CCCC1)C2 (stereo not drawn) [Compound 3]
PDE4B1 enzyme
  IC50: 1.1 nM

## COc1ccc(-c2cncc(C3COB(O)C3)n2)c2c1OC1(CCCC1)C2 (stereo not drawn) [Compound 4]
PDE4B1 enzyme
  IC50: 0.083 nM
[1]; PBMC
  IC50: 2.15 nM

## COc1ccc(-c2cc(C3COB(O)C3)cnn2)c2c1OC1(CCCC1)C2 (stereo not drawn) [Compound 5]
[1]; PBMC
  IC50: 1.56 nM

## COc1ccc(-c2cncc(C3COB(O)C3)c2)c2c1OC(C)(C)C2 (stereo not drawn) [Compound 6]
PDE4B1 enzyme
  IC50: 0.41 nM
[1]; PBMC
  IC50: 1.56 nM

## COc1ccc(-c2cncc(C3COB(O)C3)c2)c2cc(C(F)(F)F)nn12 (stereo not drawn) [Compound 7]
PDE4B1 enzyme
  IC50: 0.055 nM
[1]; PBMC
  IC50: 0.36 nM

## COc1ccc(-c2cncc(C3COB(O)C3)c2)c2c1OC(C)(C)CO2 (stereo not drawn) [Compound 8]
[1]; PBMC
  IC50: 0.74 nM

## COc1ccc(-c2cncc(C3COB(O)C3)c2)c2c1OC(C)(C)CC2 (stereo not drawn) [Compound 9]
PDE4B1 enzyme
  IC50: 0.25 nM
[1]; PBMC
  IC50: 0.3 nM

## COc1ccc(-c2cncc(C3COB(O)C3)c2)c2ccc(C(F)(F)F)nc12 (stereo not drawn) [Compound 10]
PDE4B1 enzyme
  IC50: 0.16 nM
[1]; PBMC
  IC50: 0.9 nM

## COc1ccc(-c2cncc([C@@H]3COB(O)C3)n2)c2c1OC(C)(C)CC2 [Compound 12-1]
[1]; PBMC
  IC50: 0.055 nM
[2]; Homo sapiens, PBMC
  IC50: 0.018 nM
[3]; 0.01% applied on skin
  Ratio of spleen weight to body weight Mean: 0.64
  Total clinical score Mean: 9.5
  Erythema score Mean: 4
  Scale score Mean: 3.13
  Thickness score Mean: 2.38
[3]; 0.03% applied on skin
  Ratio of spleen weight to body weight Mean: 0.43
  Total clinical score Mean: 7.57
  Erythema score Mean: 3.86
  Scale score Mean: 2.14
  Thickness score Mean: 1.57
[3]; 0.1% applied on skin
  Ratio of spleen weight to body weight Mean: 0.31
  Total clinical score Mean: 6.75
  Erythema score Mean: 3.63
  Scale score Mean: 1.38
  Thickness score Mean: 1.75

## CCCOc1cc(-c2cncc([C@@H]3COB(O)C3)c2)ccc1OC [Compound A, reference compound]
PDE4B1 enzyme
  IC50: 0.3 nM
[1]; PBMC
  IC50: 1.16 nM
[2]; Homo sapiens, PBMC
  IC50: 0.61 nM
[3]; 0.03% applied on skin
  Ratio of spleen weight to body weight Mean: 0.96
  Total clinical score Mean: 8.33
  Erythema score Mean: 3.33
  Scale score Mean: 2.5
  Thickness score Mean: 2.5
[3]; [4]
  clinical score at the endpoint (statement): significantly reduce the clinical score
  effect on the ratio of spleen weight to body weight (statement): no significant effect
[3]; low and high dose groups of Compound 12-1 (0.01%, 0.1%), Compound A 0.03%
  increase of skin thickness (statement): no significant effect

## O=C(Nc1c(Cl)cncc1Cl)c1ccc(OC(F)F)c(OCC2CC2)c1 [Roflumilast, reference compound]
[2]; Homo sapiens, PBMC
  IC50: 12.9 nM
